Measurements published in PubChem BioAssay (NCI).
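96-well plates; 48 h exposure; 5 concentrations. Endpoints by linear interpolation between flanking doses. Not reached: highest tested concentration assigned. GI50 = concentration required for 50% inhibition of growth. Definition used: TGI = concentration required for complete inhibition of growth.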

Key:
Assay in all cases: inhibition of tumour cell growth, NCI panel, 48 h
NCI-H460 lung = system: NCI-H460 lung
KM12 colon = system: KM12 colon
EKVX NSCLC = system: EKVX NSCLC
MALME-3M melanoma = system: MALME-3M melanoma
A498 renal = system: A498 renal
UACC-62 melanoma = system: UACC-62 melanoma
UO-31 renal = system: UO-31 renal
SK-OV-3 ovarian = system: SK-OV-3 ovarian
IGROV1 ovarian = system: IGROV1 ovarian
SW-620 colon = system: SW-620 colon

## OCC1OC2OC3C(CO)OC(OC4C(CO)OC(OC5C(CO)OC(OC6C(CO)OC(OC7C(CO)OC(OC1C(O)C2O)C(O)C7O)C(O)C6O)C(O)C5O)C(O)C4O)C(O)C3O (stereo not given) (tested in a mixture with another compound)
NCI-H460 lung
  TGI: > 100 µM
KM12 colon
  TGI: > 100 µM
EKVX NSCLC
  TGI: > 100 µM
MALME-3M melanoma
  TGI: > 100 µM
A498 renal
  TGI: > 100 µM
UACC-62 melanoma
  TGI: > 100 µM
UO-31 renal
  TGI: > 100 µM
SK-OV-3 ovarian
  TGI: > 100 µM
IGROV1 ovarian
  TGI: > 100 µM
SW-620 colon
  TGI: > 100 µM

## O=C(c1nc2ccc(Cl)cc2[nH]c1=O)C(O)c1ccc2c(c1)OCO2 (stereo not given)
NCI-H460 lung
  TGI: > 100 µM
KM12 colon
  TGI: > 100 µM
EKVX NSCLC
  TGI: > 100 µM
MALME-3M melanoma
  TGI: > 100 µM
A498 renal
  TGI: > 100 µM
UACC-62 melanoma
  TGI: > 100 µM
UO-31 renal
  TGI: > 100 µM
SK-OV-3 ovarian
  TGI: > 100 µM
IGROV1 ovarian
  TGI: > 100 µM
SW-620 colon
  TGI: > 100 µM

## CC(C)n1c(=O)n(C)c2cnc3cc(F)c(-c4ccc(OCCCN5CCCCC5)nc4)cc3c21
NCI-H460 lung
  GI50: 11.3 µM
  TGI: 29.4 µM
KM12 colon
  GI50: 4.19 µM
  TGI: 28.8 µM
EKVX NSCLC
  GI50: 8.19 µM
  TGI: 48.9 µM
MALME-3M melanoma
  GI50: 10.6 µM
  TGI: 23.4 µM
A498 renal
  GI50: 3.78 µM
  TGI: 14 µM
UACC-62 melanoma
  GI50: 14.1 µM
  TGI: 29.3 µM
UO-31 renal
  GI50: 3.74 µM
  TGI: 16.2 µM
SK-OV-3 ovarian
  GI50: 10.8 µM
  TGI: 73.8 µM
IGROV1 ovarian
  GI50: 8.18 µM
  TGI: 41.9 µM
SW-620 colon
  GI50: 14.3 µM
  TGI: 42.3 µM

## CC(=O)c1ccc(NC(=O)C(=O)C(C(=O)c2ccc(Cl)c(Cl)c2)C2OC(=O)c3ccccc32)cc1 (stereo not given)
NCI-H460 lung
  TGI: 33.5 µM
KM12 colon
  TGI: 38.1 µM
EKVX NSCLC
  TGI: > 100 µM
MALME-3M melanoma
  TGI: 24.9 µM
A498 renal
  TGI: 37.6 µM
UACC-62 melanoma
  TGI: 33.7 µM
UO-31 renal
  TGI: > 100 µM
SK-OV-3 ovarian
  TGI: > 100 µM
IGROV1 ovarian
  TGI: 65.5 µM
SW-620 colon
  TGI: > 100 µM

## O=C(CN1C(=O)S/C(=C\C(Cl)=C\c2ccccc2)C1=O)NCCc1ccc(O)cc1
NCI-H460 lung
  GI50: 2 µM
  TGI: 6.12 µM
KM12 colon
  GI50: 1.7 µM
  TGI: 3.43 µM
EKVX NSCLC
  GI50: 2.04 µM
  TGI: 4.74 µM
MALME-3M melanoma
  GI50: 2.03 µM
  TGI: 5.96 µM
A498 renal
  GI50: 1.65 µM
  TGI: 7.75 µM
UACC-62 melanoma
  GI50: 1.7 µM
  TGI: 3.96 µM
UO-31 renal
  GI50: 1.64 µM
  TGI: 3.31 µM
SK-OV-3 ovarian
  GI50: 3.48 µM
  TGI: > 100 µM
IGROV1 ovarian
  GI50: 1.76 µM
  TGI: 3.9 µM
SW-620 colon
  GI50: 1.82 µM
  TGI: 4.22 µM

## COc1nc(N)nc2c1ncn2[C@@H]1O[C@H](CO)[C@@H](O)[C@@H]1O
NCI-H460 lung
  GI50: > 100 µM
  TGI: > 100 µM
KM12 colon
  GI50: > 100 µM
  TGI: > 100 µM
EKVX NSCLC
  GI50: > 100 µM
  TGI: > 100 µM
MALME-3M melanoma
  GI50: > 100 µM
  TGI: > 100 µM
A498 renal
  GI50: > 100 µM
  TGI: > 100 µM
UACC-62 melanoma
  GI50: > 100 µM
  TGI: > 100 µM
UO-31 renal
  GI50: > 100 µM
  TGI: > 100 µM
SK-OV-3 ovarian
  GI50: > 100 µM
  TGI: > 100 µM
IGROV1 ovarian
  GI50: > 100 µM
  TGI: > 100 µM
SW-620 colon
  GI50: > 100 µM
  TGI: > 100 µM

## O=C(O)CP(=O)(O)O
NCI-H460 lung
  TGI: > 100 µM
KM12 colon
  TGI: > 100 µM
EKVX NSCLC
  TGI: > 100 µM
MALME-3M melanoma
  TGI: > 100 µM
A498 renal
  TGI: > 100 µM
UACC-62 melanoma
  TGI: > 100 µM
UO-31 renal
  TGI: > 100 µM
SK-OV-3 ovarian
  TGI: > 100 µM
IGROV1 ovarian
  TGI: > 100 µM
SW-620 colon
  TGI: > 100 µM

## Cc1ccc(C(=O)C#Cc2c[nH]c(=O)[nH]c2=O)cc1
NCI-H460 lung
  TGI: 33.8 µM
KM12 colon
  TGI: 28.2 µM
EKVX NSCLC
  TGI: 31.4 µM
MALME-3M melanoma
  TGI: 18.7 µM
A498 renal
  TGI: 28 µM
UACC-62 melanoma
  TGI: 21.8 µM
UO-31 renal
  TGI: 37.7 µM
SK-OV-3 ovarian
  TGI: 73.6 µM
IGROV1 ovarian
  TGI: 31.2 µM
SW-620 colon
  TGI: 20.9 µM
